Source: article PMC4076210, “Discovery of Novel AKT Inhibitors with Enhanced Anti-Tumor Effects in Combination with the MEK Inhibitor” (PLoS ONE, 2014)

Tests used:
[1] = system: hematological tumor cell lines; experiment: 3-day proliferation assay (CellTiter-Glo); type: cell-based, human; conditions: Homo sapiens
Procedure: Various tumor cell lines were obtained from different sources including; the American Type Cell Culture Collection, the Developmental Therapeutics Program, the National Cancer Institute, the German Resource Center for Biological Material and the European Collection of Animal Cell Cultures. Cell lines were typically grown in […] containing 10% FBS. Some cell lines were grown in media specified by the vendor. A 3-day proliferation assay using CellTiter-Glo (CTG, Promega) was performed to measure the growth inhibition by the compounds at 0–30 µM. Cell growth was determined relative to untreated (DMSO) controls. EC50's were calculated from inhibition curves using a 4- or 6-parameter fitting algorithm in the Assay Client application.

cKit(V560G)(h) = target: T1, cKit(V560G)(h) (Homo sapiens, UniProt P10721, V560G); experiment: Kinase panel; type: biochemical; conditions: read-out: % Inhibition
T1 construct: purchased Millipore KinaseProfiler
T1 sequence (P10721 26-976 V560G): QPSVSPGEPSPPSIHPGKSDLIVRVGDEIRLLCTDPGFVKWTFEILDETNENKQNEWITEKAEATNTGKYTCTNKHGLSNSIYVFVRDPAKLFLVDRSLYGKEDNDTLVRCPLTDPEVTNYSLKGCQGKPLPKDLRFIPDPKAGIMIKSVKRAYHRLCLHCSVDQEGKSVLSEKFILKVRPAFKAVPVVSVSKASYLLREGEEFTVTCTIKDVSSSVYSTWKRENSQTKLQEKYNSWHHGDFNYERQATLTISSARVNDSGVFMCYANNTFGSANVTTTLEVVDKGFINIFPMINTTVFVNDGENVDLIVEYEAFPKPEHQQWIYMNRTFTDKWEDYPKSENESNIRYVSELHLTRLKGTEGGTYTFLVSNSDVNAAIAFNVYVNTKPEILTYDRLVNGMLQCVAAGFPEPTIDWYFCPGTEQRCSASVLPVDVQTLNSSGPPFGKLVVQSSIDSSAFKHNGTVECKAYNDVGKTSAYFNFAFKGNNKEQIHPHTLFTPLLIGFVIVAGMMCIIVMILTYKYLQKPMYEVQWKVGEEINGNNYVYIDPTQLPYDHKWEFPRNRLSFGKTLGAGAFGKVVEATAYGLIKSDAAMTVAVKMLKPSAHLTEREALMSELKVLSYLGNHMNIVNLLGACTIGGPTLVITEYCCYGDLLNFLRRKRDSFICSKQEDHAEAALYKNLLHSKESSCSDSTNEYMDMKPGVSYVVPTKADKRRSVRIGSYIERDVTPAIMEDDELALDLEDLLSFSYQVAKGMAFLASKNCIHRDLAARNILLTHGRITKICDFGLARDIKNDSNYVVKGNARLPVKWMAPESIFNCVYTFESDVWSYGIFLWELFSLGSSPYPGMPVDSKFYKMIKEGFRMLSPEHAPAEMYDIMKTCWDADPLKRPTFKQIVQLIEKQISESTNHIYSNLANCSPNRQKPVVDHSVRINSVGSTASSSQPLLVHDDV

Question: Which IC50 ([1]; KG-1, KG-1 cell line, AML, B Cell) does the source give for `Cn1ncc(Cl)c1-c1cc(C(=O)N[C@H](CN)Cc2ccc(F)c(F)c2)oc1Cl` [GSK2141795] here?
Answer: Its IC50 is 281 nM.

Question: What about the IC50 ([1]; KU812, Ku812 cell line, CML, Basophilic Leukocyte) of the same molecule?
Answer: The IC50 was 72 nM.

Question: What about the IC50 ([1]; Kasumi 1, Kasumi-1 cell line, AML, Myeloblast) of the same molecule?
Answer: The IC50 was 22.3 nM.

Question: What about the IC50 ([1]; Kasumi-2 cell line, AML, Myeloblast) of the same molecule?
Answer: Its IC50 is 457 nM.

Question: What about the IC50 ([1]; L-428, L428 cell line, Hodgkin's Lymphoma, Unspecified) of the same molecule?
Answer: The IC50 was 1.2 nM.

Question: What about the IC50 ([1]; MC116, MC116 cell line, Burkitt's Lymphoma, B Cell) of the same molecule?
Answer: Its IC50 is 320 nM.

Question: What about the IC50 ([1]; MEC1, MEC1 cell line, CLL, B Cell) of the same molecule?
Answer: Its IC50 is 168 nM.

Question: And the IC50 ([1]; MEC2, MEC-2 cell line, CLL, B Cell)?
Answer: The IC50 was 112 nM.

Question: And the IC50 ([1]; MEG-01, MEG01 cell line, CML, Megakaryoblastic)?
Answer: Its IC50 is 285 nM.

Question: What about the IC50 ([1]; MHH-CALL-3 cell line, ALL, pre-B Cell) of the same molecule?
Answer: Its IC50 is 26 nM.

Question: What about the IC50 ([1]; MHH-PREB-1, MHH-PREB-1 cell line, Non-Hodgkin's Lymphoma, B Cell) of the same molecule?
Answer: The IC50 was 932 nM.

Question: What about the IC50 ([1]; ML-2, ML-2 cell line, AML, Myelomonocytic) of the same molecule?
Answer: The IC50 was 399 nM.

Question: What about the IC50 ([1]; MOLT-3, MOLT3 cell line, ALL, T Cell) of the same molecule?
Answer: Its IC50 is 19 nM.

Question: What about the IC50 ([1]; MOLT-4, Molt-4 cell line, ALL, T Cell) of the same molecule?
Answer: The IC50 was 10 nM.

Question: What about the IC50 ([1]; MOLT-16, MOLT16 cell line, ALL, T Cell) of the same molecule?
Answer: Its IC50 is 15 nM.

Question: What about the IC50 ([1]; MV4-11, MV-4-11 cell line, AML, Myelomonocytic) of the same molecule?
Answer: Its IC50 is 875 nM.

Question: What about the IC50 ([1]; NALM-6, Nalm-6 cell line, ALL, pre-B Cell) of the same molecule?
Answer: Its IC50 is 74 nM.

Question: And the IC50 ([1]; NC-37, NC-37 cell line, Burkitt's Lymphoma, B Cell)?
Answer: The IC50 was 752 nM.

Question: And the IC50 ([1]; NOMO-1, Nomo-1 cell line, AML, B Cell)?
Answer: Its IC50 is 48 nM.

Question: What about the IC50 ([1]; NU-DHL-1, NU-DHL-1 cell line, Burkitt's Lymphoma, B Cell) of the same molecule?
Answer: Its IC50 is 16 nM.

Question: What about the IC50 ([1]; OCI-AML2, OCI-AML-2 cell line, AML, B Cell) of the same molecule?
Answer: The IC50 was 18100 nM.

Question: And the IC50 ([1]; OCI-AML-3, OCI-AML-3 cell line, AML, B Cell)?
Answer: The IC50 was 28 nM.

Question: And the IC50 ([1]; OCI-M1, OCI-M1 cell line, AML, B Cell)?
Answer: The IC50 was 644 nM.

Question: And the IC50 ([1]; P3HR-1, P3HR-1 cell line, Burkitt's Lymphoma, B Cell)?
Answer: The IC50 was 17 nM.

Question: What about the IC50 ([1]; PLB-985, PLB985 cell line, AML, B Cell) of the same molecule?
Answer: Its IC50 is 1140 nM.

Question: What about the IC50 ([1]; Pfeiffer, Pfeiffer cell line, Non-Hodgkin's Lymphoma, B Cell) of the same molecule?
Answer: The IC50 was 10 nM.

Question: And the IC50 ([1]; RCH-ACV cell line, ALL, pre-B Cell)?
Answer: The IC50 was 157 nM.

Question: What about the IC50 ([1]; RCK8, RC-K8 cell line, Non-Hodgkin's Lymphoma (Histiocytic), B Cell) of the same molecule?
Answer: Its IC50 is 1750 nM.

Question: And the IC50 ([1]; REH, Reh cell line, ALL, pre-B Cell)?
Answer: The IC50 was 92 nM.

Question: And the IC50 ([1]; RL, RL cell line, Non-Hodgkin's Lymphoma, B Cell)?
Answer: The IC50 was 72 nM.

Question: And the IC50 ([1]; RPMI-6666, RPMI 6666 cell line, Hodgkin's Lymphoma, Lymphoblast)?
Answer: The IC50 was 121 nM.

Question: What about the IC50 ([1]; RS4-11, RS4;11 cell line, ALL, B Cell) of the same molecule?
Answer: The IC50 was 177 nM.

Question: And the IC50 ([1]; Raji, Raji cell line, Burkitt's Lymphoma, B Cell)?
Answer: Its IC50 is 6370 nM.

Question: What about the IC50 ([1]; Rec1, REC-1 cell line, Non-Hodgkin's Lymphoma, B Cell) of the same molecule?
Answer: Its IC50 is 721 nM.

Question: What about the IC50 ([1]; SC-1, SC1 cell line, Burkitt's Lymphoma, B Cell) of the same molecule?
Answer: Its IC50 is 965 nM.

Question: And the IC50 ([1]; SEM cell line, ALL, pre-B Cell)?
Answer: The IC50 was 210 nM.

Question: What about the IC50 ([1]; SKO-007, SKO-007 cell line, Multiple Myeloma, B Cell) of the same molecule?
Answer: Its IC50 is 4890 nM.

Question: And the IC50 ([1]; SKW3, SKW-3 cell line, CLL, B Cell)?
Answer: The IC50 was 26 nM.

Question: What about the IC50 ([1]; SR, SR cell line, Non-Hodgkin's Lymphoma, Lymphoblast) of the same molecule?
Answer: The IC50 was 1960 nM.

Question: And the IC50 ([1]; ST486, ST486 cell line, Burkitt's Lymphoma, B Cell)?
Answer: Its IC50 is 745 nM.

Question: And the IC50 ([1]; SU-DHL10, SU-DHL-10 cell line, Non-Hodgkin's Lymphoma, B Cell)?
Answer: Its IC50 is 73 nM.

Question: What about the IC50 ([1]; SU-DHL-4, SU-DHL-4 cell line, Non-Hodgkin's Lymphoma, B Cell) of the same molecule?
Answer: The IC50 was 53 nM.

Question: What about the IC50 ([1]; SU-DHL-5, SU-DHL-5 cell line, Non-Hodgkin's Lymphoma, B Cell) of the same molecule?
Answer: The IC50 was 31 nM.

Question: What about the IC50 ([1]; SU-DHL-6, SU-DHL-6 cell line, Non-Hodgkin's Lymphoma, B Cell) of the same molecule?
Answer: Its IC50 is 35 nM.

Question: What about the IC50 ([1]; SU-DHL-16, SU-DHL-16 cell line, Non-Hodgkin's Lymphoma, B Cell) of the same molecule?
Answer: Its IC50 is 23 nM.

Question: And the IC50 ([1]; SUP-B15, SUP B15 cell line, ALL, B Cell)?
Answer: The IC50 was 824 nM.

Question: What about the IC50 ([1]; T-cell, 8E5 cell line, ALL, T Cell) of the same molecule?
Answer: The IC50 was 31 nM.

Question: And the IC50 ([1]; T-cell, A3 cell line, ALL, T Cell)?
Answer: The IC50 was 38 nM.

Question: What about the IC50 ([1]; T-cell, CEM/C3 cell line, ALL, T Cell) of the same molecule?
Answer: The IC50 was 18 nM.

Question: And the IC50 ([1]; T-cell, I2.1 cell line, ALL, T Cell)?
Answer: The IC50 was 26 nM.

Question: What about the IC50 ([1]; T-cell, I9.2 cell line, ALL, T Cell) of the same molecule?
Answer: Its IC50 is 43 nM.

Question: What about the IC50 ([1]; T-cell, J.Cam.1.6 cell line, ALL, T Cell) of the same molecule?
Answer: The IC50 was 41 nM.

Question: And the IC50 ([1]; T-cell, J.RT-T3.5 cell line, ALL, T Cell)?
Answer: The IC50 was 30 nM.

Question: And the IC50 ([1]; T-cell, JR45.01 cell line, ALL, T Cell)?
Answer: Its IC50 is 16 nM.

Question: And the IC50 ([1]; T-cell, LOUCY cell line, ALL, T Cell)?
Answer: Its IC50 is 13 nM.

Question: And the IC50 ([1]; T-cell, MJ cell line, Non-Hodgkin's Lymphoma (CTCL), T Cell)?
Answer: Its IC50 is 2880 nM.

Question: What about the IC50 ([1]; T-cell, P116 cell line, ALL, T Cell) of the same molecule?
Answer: Its IC50 is 18 nM.

Question: And the IC50 ([1]; T-cell, SUPTI(VB) cell line, ALL, T Cell)?
Answer: Its IC50 is 115 nM.

Question: What about the IC50 ([1]; TO 175.T, TO 175.T cell line, Hodgkin's Lymphoma, Unspecified) of the same molecule?
Answer: Its IC50 is 5250 nM.

Question: And the IC50 ([1]; Toledo, Toledo cell line, Non-Hodgkin's Lymphoma, B Cell)?
Answer: The IC50 was 99 nM.

Question: And the IC50 ([1]; U-937, U937 cell line, Non-Hodgkin's Lymphoma (Histiocytic), Monocyte)?
Answer: The IC50 was 22 nM.

Question: What about the inhibition at 0.5 µM (cKit(V560G)(h); 0.5 µM) of the same molecule?
Answer: The inhibition at 0.5 µM was -25%.

Question: What about the inhibition at 10 µM (cKit(V560G)(h); 10 µM) of the same molecule?
Answer: Its inhibition at 10 µM is 16%.
